Consider one molecule from patent publication US11623922B2, “Compounds” (INFLAZOME LIMITED, priority 2017, dated 2023).

Data set [1] in a line: PK protocol, intravenous administration in rats. The class given is in vivo. The note with it: rat, 1 mg/kg, male Sprague Dawley rats, plasma. On the procedure: Pharmacokinetic parameters were determined in male Sprague Dawley rats (Vital River Laboratory Animal Technology Co Ltd, Beijing, China, 7-9 weeks old). Animals were individually housed during the study and maintained under a 12 h light/dark cycle. Animals had free access to food and water.
For intravenous administration, compounds were formulated as a solution in DMSO:PBS [10:90] in 2 mL/kg dosing volume and administered via tail vein.
Serial blood samples (about 200 μL) were taken from each animal at each of 8 time-points post dose (0.083, 0.25, 0.5, 1, 2, 4, 8 and 24 h). Samples were held on ice for no longer than 30 minutes before centrifugation (5,696 rpm (3,000 g) for 15 minutes) for plasma generation. Plasma was frozen on dry ice prior to bioanalysis. PK parameters were generated from LC-MS/MS data using Phoenix WinNonlin 6.3 software.

The target of data set [2] is T1, NLRP3 (Homo sapiens, UniProt Q96P20). Briefly: THP-1 cells pyroptosis assay. The class given is cell-based. Details: Seed THP-1 cells (25,000 cells/well) containing 1.0 μg/ml LPS in 40 μl of RPMI medium; host or cells: THP-1 cells. The note with it: NLRP3 inhibitory activity, 1.0 μg/ml LPS, nigericin 5 μM, resazurin readout. On the procedure: The cells were routinely passaged and grown to confluency (˜10^6 cells/ml). On the day of the experiment, THP-1 cells were harvested and resuspended into RPMI medium (without FBS). The cells were then counted and viability (>90%) checked by Trypan blue (Sigma #T8154). […] To this diluted cell solution was added LPS (Sigma #L4524) to give a 1 μg/ml Final Assay Concentration (FAC). 40 μl of the final preparation was aliquoted into each well of a 96-well plate. The plate thus prepared was used for compound screening.
The following method step-by-step assay was followed for compound screening. • 1. […] Incubate for 3 hrs at 37° C. in 5% CO2 • 4. Add 5 μl nigericin (Sigma #N7143) (FAC 5 μM) to all wells • 5. Incubate for 1 hr at 37° C. and 5% CO2 • 6. At the end of the incubation period, spin plates at 300×g for 3 mins and remove supernatant • 7. Then add 50 μl of resazurin (Sigma #R7017) (FAC 100 μM resazurin in RPMI medium without FBS) and incubate plates for a further 1-2 hrs at 37° C. and 5% CO2 • 8. […] IC50 data is fitted to a non-linear regression equation (log inhibitor vs response-variable slope 4-parameters)
(Alamar Blue is a resazurin reagent that responds to reducing activity.)

The target in data set [3] is T1, NLRP3. Briefly: Human whole blood IL1β release assay. The class given is cell-based. On the set-up: Plate out 80 μl of whole blood containing 1 μg/ml of LPS in 96-well, clear bottom cell culture plate; from tissue; host or cells: human whole blood from healthy donors. The note with it: NLRP3 inhibitory activity, 1 μg/ml LPS, nigericin 10 μM, IL-1β by AlphaLisa, read-out: HWB IC50. On the procedure: For systemic delivery, the ability to inhibit NLRP3 when the compounds are present within the bloodstream is of great importance. For this reason, the NLRP3 inhibitory activity of a number of compounds in human whole blood was investigated in accordance with the following protocol.
Human whole blood in Li-heparin tubes was obtained from healthy donors from a volunteer donor panel. • 1. […] Incubate for 3 hrs at 37° C., 5% CO2 • 4. Add 10 μl nigericin (Sigma #N7143) (10 μM FAC) to all wells • 5. Incubate for 1 hr at 37° C., 5% CO2 • 6. At the end of the incubation period, spin plates at 300×g for 5 mins to pellet cells and remove 20 μl of supernatant and add to 96-well v-bottom plates for IL-1β analysis (note: these plates containing the supernatants can be stored at −80° C. to be analysed at a later date) • 7. IL-1β was measured according to the manufacturer protocol (Perkin Elmer-AlphaLisa IL-1 Kit AL220F-5000) • 8. IC50 data is fitted to a non-linear regression equation (log inhibitor vs response-variable slope 4-parameters)
In general terms: Bead proximity is the source of the signal in Alpha formats.

Each structure is given as a SMILES string.

T1 sequence (Q96P20 whole entry): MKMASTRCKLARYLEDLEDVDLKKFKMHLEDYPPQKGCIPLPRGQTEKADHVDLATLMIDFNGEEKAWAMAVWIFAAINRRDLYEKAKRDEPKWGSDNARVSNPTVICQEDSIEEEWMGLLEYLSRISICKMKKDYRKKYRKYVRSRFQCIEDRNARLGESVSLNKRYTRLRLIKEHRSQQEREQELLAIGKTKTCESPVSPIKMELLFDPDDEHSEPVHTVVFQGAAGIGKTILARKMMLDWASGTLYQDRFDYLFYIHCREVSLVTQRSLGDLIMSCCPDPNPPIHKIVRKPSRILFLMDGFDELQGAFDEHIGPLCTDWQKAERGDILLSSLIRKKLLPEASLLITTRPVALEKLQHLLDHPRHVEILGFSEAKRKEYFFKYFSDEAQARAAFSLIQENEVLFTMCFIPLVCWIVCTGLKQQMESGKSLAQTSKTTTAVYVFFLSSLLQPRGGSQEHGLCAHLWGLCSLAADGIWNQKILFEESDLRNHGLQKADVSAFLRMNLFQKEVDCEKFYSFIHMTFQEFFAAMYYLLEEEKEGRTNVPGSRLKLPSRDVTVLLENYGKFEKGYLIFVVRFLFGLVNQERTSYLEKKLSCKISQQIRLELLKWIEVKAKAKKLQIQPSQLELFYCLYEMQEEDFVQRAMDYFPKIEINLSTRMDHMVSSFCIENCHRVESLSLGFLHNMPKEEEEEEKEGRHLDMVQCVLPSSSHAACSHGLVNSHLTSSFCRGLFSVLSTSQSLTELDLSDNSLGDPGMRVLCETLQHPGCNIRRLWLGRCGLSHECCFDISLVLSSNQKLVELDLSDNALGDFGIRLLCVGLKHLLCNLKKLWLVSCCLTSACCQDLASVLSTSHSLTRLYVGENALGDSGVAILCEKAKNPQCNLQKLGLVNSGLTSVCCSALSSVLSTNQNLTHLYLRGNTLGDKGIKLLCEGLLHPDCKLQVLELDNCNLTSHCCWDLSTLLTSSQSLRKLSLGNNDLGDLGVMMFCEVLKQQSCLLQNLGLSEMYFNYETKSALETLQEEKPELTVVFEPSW

In general, AUC refers to concentration integrated over time. Lower therefore signals low exposure. A word on the clearance: it is the volume of plasma or blood freed of the substance per unit of time. As a reminder, the half-life is the time in which the quantity being followed falls by half. What is called IC50 is the midpoint of a concentration-inhibition curve. Regarding `COc1cc(-c2ccc3c(c2NC(=O)NS(=N)(=O)c2ccn(C(C)C)n2)CCC3)ccn1` (racemic) [Example 14, 1-Isopropyl-N-((5-(2-methoxypyridin-4-yl)-2,3-dihydro-1H-inden-4-yl)carbamoyl)-1H-pyrazole-3-sulfonimidamide], in data set [1], the AUC was found to be 1740 ng·h/mL, the clearance is 9.6 mL/min/kg and the half-life is 54 min. Moreover, the Vd in data set [1] (read-out: Vdss) is 0.34 L/kg. At NLRP3 [2], this molecule displayed an IC50 below 100 nM. For the same molecule, the IC50 at NLRP3 [3] is below 500 nM.
